Key:
[1] = test system: ANIT-induced intrahepatic cholestasis; assay: Bile flow rate in ANIT-induced cholestatic rats; type: in vivo, rat; conditions: UDCA 100 mg/kg i.g. + ANIT 50 mg/kg; over 360 min at 48 h after ANIT; not significant vs model
Description: Ltd. (Shanghai, China) and fed in the Laboratory Animal Center of Shanghai University of Traditional Chinese Medicine. […] The rats were randomly divided into six groups (n = 5 for each group). […] [Cao et al., 2017]). […] Before and 24 h after modeling, retro-orbital blood samples were collected in a coagulation tube, and they were then centrifuged at 4°C for 10 min (4000 rpm) to obtain the serum for the assay of ALT, AST, TBIL, DBIL, and TBA. At the end of the experiment, all rats were euthanized by CO2 inhalation. The serum samples were stored at -70°C until analysis, and liver samples were isolated and stored at -70°C for further analysis, whereas the central part of the right large lobe of the liver was used for histological examination.  FIGURE 2 The scheme of the animal experimental design. […] UDCA, positive control group treated with ursodeoxycholic acid (UDCA) (100 mg/kg, […].); […] A closed IV catheter system (Becton Dickinson, United States) was applied to cannulate the bile duct, and the bile specimens were collected into tubes at 2 h intervals for 6 h. The collected serum samples were maintained at room temperature to dissolve. The serum levels of ALT, AST, TBIL, DBIL, and TBA were then determined using a chemistry analyzer system (HITACHI 7080, Japan).

[2] = test system: UGT1A1; assay: Expression level of UGT1A1 in rat liver by UHPLC-MS/MS; type: in vivo
Description: (§1) Male Sprague Dawley rats (230 ± 20 g, 6–8 weeks of age) were purchased from B&K Laboratory Animal, Corp. Ltd. (Shanghai, China) and fed in the Laboratory Animal Center of Shanghai University of Traditional Chinese Medicine. All rats were allowed to acclimatize for 3 days before experimentation. The rats were randomly divided into six groups (n = 5 for each group). […] Moreover, groups 1 and 2 were intragastrically treated with physiological saline (0.9%) at a dose of 1 mL/100 g. […] At the end of the experiment, all rats were euthanized by CO2 inhalation. The serum samples were stored at -70°C until analysis, and liver samples were isolated and stored at -70°C for further analysis, whereas the central part of the right large lobe of the liver was used for histological examination.
(§2) Biotransformation of xenobiotics and endogenous compounds is a crucial step in the absorption and elimination of potentially harmful substances from the human body, a process that could be affected by the levels of pharmacokinetic enzymes and transporter proteins. […]
(§3) Total membrane protein was isolated (in triplicate) from liver tissue according to the Native Membrane Protein Extraction Kit protocol. Subsequently, protein concentrations were determined by applying the BCA Protein Assay Kit. […]

[3] = test system: MRP2; assay: Expression level of MRP2 in rat liver by UHPLC-MS/MS; type: in vivo
Description: (§4) Male Sprague Dawley rats (230 ± 20 g, 6–8 weeks of age) were purchased from B&K Laboratory Animal, Corp. Ltd. (Shanghai, China) and fed in the Laboratory Animal Center of Shanghai University of Traditional Chinese Medicine. All rats were allowed to acclimatize for 3 days before experimentation. The rats were randomly divided into six groups (n = 5 for each group). […] The rats in groups 4, 5, and 6 were intragastrically administered YCHD every 24 h for 10 consecutive days. The rats in group 3 were orally administered UDCA at a dose of 100 mg/kg every 24 h for 10 consecutive days, which is well-documented to treat induced liver injury and cholestasis ([Chen et al., 2016]; [Cao et al., 2017]). Moreover, groups 1 and 2 were intragastrically treated with physiological saline (0.9%) at a dose of 1 mL/100 g. […] At the end of the experiment, all rats were euthanized by CO2 inhalation. The serum samples were stored at -70°C until analysis, and liver samples were isolated and stored at -70°C for further analysis, whereas the central part of the right large lobe of the liver was used for histological examination. […]

[4] = test system: BSEP; assay: Expression level of BSEP in rat liver by UHPLC-MS/MS; type: in vivo
Description: as §1, §2, §3

[5] = test system: MDR1; assay: Expression level of MDR1 in rat liver by UHPLC-MS/MS; type: in vivo
Description: as §1, §2, §3

[6] = test system: OATP1A1; assay: Expression level of OATP1A1 in rat liver by UHPLC-MS/MS; type: in vivo; conditions: UDCA group, ANIT-treated rats; mean ± S.D.
Description: as §4

[7] = UDCA group, ANIT-treated rats, mean ± S.D.
[8] = UDCA-treated cholestatic rats, liver, as compared with the control group, p < 0.05

C[C@H](CCC(=O)O)[C@H]1CC[C@H]2[C@@H]3[C@@H](O)C[C@@H]4C[C@H](O)CC[C@]4(C)[C@H]3CC[C@]12C [UDCA, Ursodeoxycholic acid] was tested, and the bile flow rate [1] was 0.29 ± 0.12 μL/min⋅100 g B.W, the “Ugt1a1 expression level in rat liver” value [2, 7] was 6.06±1.34 fmol/μg protein and the “UGT1A1 level, fold higher” value ([2]; UDCA-treated cholestatic rats, liver, as compared with the control group, p < 0.01) was 2.1 fold. For the same compound, the “Mrp2 expression level in rat liver” value [3, 7] was 2.21±0.87 fmol/μg protein, the “MRP2 expression upregulated, fold” value ([3]; UDCA-treated cholestatic rats, liver, not statistically significant) was 1.5 fold and the “Bsep expression level in rat liver” value [4, 7] was 18.1±2.56 fmol/μg protein. The “BSEP level, fold higher” value [4, 8] was 1.2 fold, the “Mdr1 expression level in rat liver” value [5, 7] was 0.67±0.32 fmol/μg protein and the “MDR1 level, fold higher” value [5, 8] was 2.4 fold. The “Oatp1a1 expression level in rat liver” value [6] was 3.42±1.23 fmol/μg protein.

From paper PMC5962729 (Frontiers in Pharmacology, 2018)
